Results taken from ChEMBL document CHEMBL2029218, “Structure-based design of novel class II c-Met inhibitors: 2. SAR and kinase selectivity profiles of the pyrazolone series” (J Med Chem, 2012).

Columns and labels:
[1] = target: Insulin-like growth factor 1 receptor (Homo sapiens, UniProt P08069); assay: Inhibition of IGF1R by HTRF assay
Aurora kinase A = Aurora kinase A (Homo sapiens, UniProt O14965); assay: Inhibition of aurora-1
Angiopoietin-1 receptor = Angiopoietin-1 receptor (Homo sapiens, UniProt Q02763); assay: Inhibition of TIE2
[2] = target: Tyrosine-protein kinase JAK3 (Homo sapiens, UniProt P52333); assay: Inhibition of JAK3
[3] = target: Mast/stem cell growth factor receptor Kit (Homo sapiens, UniProt P10721); assay: Inhibition of c-KIT
[4] = target: RAC-alpha serine/threonine-protein kinase (Homo sapiens, UniProt P31749); assay: Inhibition of PKBalpha
[5] = target: Fibroblast growth factor receptor 1 (Homo sapiens, UniProt P11362); assay: Inhibition of FGFRK
[6] = target: Tyrosine-protein kinase JAK1 (Homo sapiens, UniProt P23458); assay: Inhibition of JAK1
[7] = target: Tyrosine-protein kinase JAK2 (Homo sapiens, UniProt O60674); assay: Inhibition of JAK2
[8] = target: Serine/threonine-protein kinase pim-1 (Homo sapiens, UniProt P11309); assay: Inhibition of PIM1
[9] = target: Serine/threonine-protein kinase pim-2 (Homo sapiens, UniProt Q9P1W9); assay: Inhibition of PIM2
[10] = target: RAC-beta serine/threonine-protein kinase (Homo sapiens, UniProt P31751); assay: Inhibition of PKBbeta
[11] = target: Ribosomal protein S6 kinase beta-1 (Homo sapiens, UniProt P23443); assay: Inhibition of p70S6K
[12] = target: Mitogen-activated protein kinase 3 (Homo sapiens, UniProt P27361); assay: Inhibition of ERK1
[13] = target: Ribosomal protein S6 kinase alpha-5 (Homo sapiens, UniProt O75582); assay: Inhibition of MSK1
[14] = target: Mitogen-activated protein kinase 14 (Homo sapiens, UniProt Q16539); assay: Inhibition of p38alpha
[15] = target: Vascular endothelial growth factor receptor 2 (Homo sapiens, UniProt P35968); assay: Inhibition of VEGFR2 by HTRF assay
[16] = target: Hepatocyte growth factor receptor (Homo sapiens, UniProt P08581)
Description: Inhibition of c-Met by HTRF assay

[17] = target: Macrophage-stimulating protein receptor (Homo sapiens, UniProt Q04912); assay: Inhibition of RON by HTRF assay
[18] = target: Proto-oncogene tyrosine-protein kinase receptor Ret (Homo sapiens, UniProt P07949); assay: Inhibition of RET
[19] = target: Mitogen-activated protein kinase 9 (Homo sapiens, UniProt P45984); assay: Inhibition of JNK2
[20] = target: cAMP-dependent protein kinase catalytic subunit alpha (Homo sapiens, UniProt P17612); assay: Inhibition of PKAalpha
[21] = target: Cyclin-dependent kinase 5/CDK5 activator 1 (Homo sapiens, UniProt Q00535)

With CC[C@H](O)Cn1c(C)c(C(=O)Nc2ccc(Oc3ccnc4cc(OC)ccc34)c(F)c2)c(=O)n1-c1ccccc1 the Ki [1] was 575 nM.
COc1cc2nccc(Oc3ccc(NC(=O)c4c(C)n(C)n(-c5ccccc5)c4=O)cc3F)c2cc1OC gave an IC50 (Aurora kinase A) of 1000 nM, an IC50 (Angiopoietin-1 receptor) of 100 nM and an IC50 [2] of 10 µM. For the same compound, the IC50 [3] was 0.1 µM, the IC50 [4] was 10 µM and the IC50 [5] was 1 µM. For the same compound, the IC50 [6] was 10 µM, the IC50 [7] was 1 µM and the IC50 [8] was 25 µM. It also gave an IC50 [9] of 25 µM, an IC50 [10] of 25 µM and an IC50 [11] of 1 µM. For the same compound, the IC50 [12] was 25 µM, the IC50 [13] was 10 µM and the IC50 [14] was 1 µM.
COc1cc2nccc(Oc3ccc(NC(=O)c4c(C)n(C)n(-c5ccccc5)c4=O)cc3F)c2cc1Br was tested, and the Ki [15] was 78.9 nM and the Ki [1] was 149 nM.
Work on COc1cc2nccc(Oc3ccc(NC(=O)c4c(C)n(C)n(-c5ccccc5)c4=O)cc3F)c2cc1C yielded a Ki [1] of 146 nM.
In the case of CCc1cc2c(Oc3ccc(NC(=O)c4c(C)n(C)n(-c5ccccc5)c4=O)cc3F)ccnc2cc1OC, the Ki [1] is reported as 70.2 nM.
COc1cc2nccc(Oc3ccc(NC(=O)c4c(C)n(C)n(-c5ccccc5)c4=O)cn3)c2cc1OC was tested, and the Ki [1] was 1570 nM.
With COc1cc2nccc(Oc3ccc(NC(=O)c4c(C)n(C)n(-c5ccccc5)c4=O)c(Cl)c3)c2cc1OC the Ki [15] was 35.9 nM and the Ki [1] was 26.5 nM.
COc1ccc2c(Oc3ccc(NC(=O)c4c(C)n(C)n(-c5ccccc5)c4=O)c(OC)c3)ccnc2c1 gave a Ki [15] of 702 nM and a Ki [1] of 93.6 nM.
COc1cc2nccc(Oc3ccc(NC(=O)c4c(C)n(C)n(-c5ccccc5)c4=O)nc3)c2cc1OC gave a Ki [1] of 233 nM.
With COc1ccc2c(Oc3ccc(NC(=O)c4c(C)n(C)n(-c5ccccc5)c4=O)nc3)ccnc2c1 the Ki [1] was 618 nM.
For COc1ccc2c(Oc3cnc(NC(=O)c4c(C)n(C)n(-c5ccccc5)c4=O)nc3)ccnc2c1, the Ki [15] was 1630 nM, the Ki [1] was 217 nM and the Ki [16] was 16.7 nM.
Compound COc1ccc2c(Oc3ccc(NC(=O)c4c(CN)n(C)n(-c5ccccc5)c4=O)cc3F)ccnc2c1 has a Ki [15] of 541 nM and a Ki [1] of 928 nM.
Compound COc1ccc2c(Oc3ccc(NC(=O)c4c(CNC(=O)OC(C)(C)C)n(C)n(-c5ccccc5)c4=O)cc3F)ccnc2c1 has a Ki [1] of over 6600 nM.
In the case of CCN(C)Cc1c(C(=O)Nc2ccc(Oc3ccnc4cc(OC)ccc34)c(F)c2)c(=O)n(-c2ccccc2)n1C, the Ki [1] is reported as 744 nM.
COc1ccc2c(Oc3ccc(NC(=O)c4c(CN5CCCC5)n(C)n(-c5ccccc5)c4=O)cc3F)ccnc2c1 gave a Ki [1] of 1800 nM.
For COc1ccc2c(Oc3ccc(NC(=O)c4c(CN5CCCC5)n(C)n(-c5ccccc5)c4=O)nc3)ccnc2c1, the Ki [1] was 887 nM.
COc1ccc2c(Oc3ccc(NC(=O)c4c(C(C)(C)N)n(C)n(-c5ccccc5)c4=O)cc3F)ccnc2c1 was tested, and the Ki [1] was 3100 nM.
Compound COc1ccc2c(Oc3ccc(NC(=O)c4c([C@@H]5CCCN5)n(C)n(-c5ccccc5)c4=O)cc3F)ccnc2c1 has a Ki [15] of 2240 nM and a Ki [1] of 680 nM.
In the case of COc1ccc2c(Oc3ccc(NC(=O)c4c([C@@H]5CCCN5)n(C)n(-c5ccccc5)c4=O)nc3)ccnc2c1, the Ki [15] is reported as over 6600 nM and the Ki [1] is reported as 948 nM.
Compound COc1ccc2c(Oc3ccc(NC(=O)c4c(C5CCOCC5)n(C)n(-c5ccccc5)c4=O)cc3F)ccnc2c1 has a Ki [1] of 144 nM.
COc1ccc2c(Oc3ccc(NC(=O)c4c(C5CCOCC5)n(C)n(-c5ccccc5)c4=O)nc3)ccnc2c1 was tested, and the Ki [15] was 2720 nM and the Ki [1] was 42.7 nM.
In the case of COc1ccc2c(Oc3ccc(NC(=O)c4c(-c5ccncc5)n(C)n(-c5ccccc5)c4=O)nc3)ccnc2c1, the Ki [15] is reported as over 6600 nM and the Ki [1] is reported as 35.9 nM.
For COc1ccc2c(Oc3ccc(NC(=O)c4c(-c5ccccn5)n(C)n(-c5ccccc5)c4=O)nc3)ccnc2c1, the Ki [15] was 1380 nM and the Ki [1] was 18.5 nM.
In the case of COc1ccc2c(Oc3ccc(NC(=O)c4c(-c5cccnc5)n(C)n(-c5ccccc5)c4=O)nc3)ccnc2c1, the Ki [15] is reported as 2830 nM and the Ki [1] is reported as 27 nM.
Work on COc1ccc2c(Oc3ccc(NC(=O)c4c(-c5cnccn5)n(C)n(-c5ccccc5)c4=O)nc3)ccnc2c1 yielded a Ki [15] of 4730 nM and a Ki [1] of 87.7 nM.
For COc1ccc2c(Oc3ccc(NC(=O)c4c(-c5cc(C)on5)n(C)n(-c5ccccc5)c4=O)nc3)ccnc2c1, the Ki [15] was 501 nM and the Ki [1] was 30.9 nM.
COc1ccc2c(Oc3ccc(NC(=O)c4c(-c5csc(C)n5)n(C)n(-c5ccccc5)c4=O)nc3)ccnc2c1 was tested, and the Ki [15] was 588 nM and the Ki [1] was 24.8 nM.
In the case of CCn1c(C)c(C(=O)Nc2ccc(Oc3ccnc4cc(OC)ccc34)c(F)c2)c(=O)n1-c1ccccc1, the Ki [1] is reported as 557 nM.
CCn1c(C)c(C(=O)Nc2ccc(Oc3ccnc4cc(OC)ccc34)cn2)c(=O)n1-c1ccccc1 was tested, and the Ki [1] was 708 nM.
Work on CCCn1c(C)c(C(=O)Nc2ccc(Oc3ccnc4cc(OC)ccc34)cn2)c(=O)n1-c1ccccc1 yielded a Ki [1] of 730 nM.
In the case of C=C(C)Cn1c(C)c(C(=O)Nc2ccc(Oc3ccnc4cc(OC)ccc34)c(F)c2)c(=O)n1-c1ccccc1, the Ki [1] is reported as 249 nM.
COc1ccc2c(Oc3ccc(NC(=O)c4c(C)n(CCN)n(-c5ccccc5)c4=O)cc3F)ccnc2c1 gave a Ki [1] of 872 nM.
In the case of COc1ccc2c(Oc3ccc(NC(=O)c4c(C)n(CCO)n(-c5ccccc5)c4=O)cc3F)ccnc2c1, the Ki [1] is reported as 864 nM.
Compound COc1ccc2c(Oc3ccc(NC(=O)c4c(C)n(CCO)n(-c5ccccc5)c4=O)nc3)ccnc2c1 has a Ki [1] of 1100 nM.
COCCn1c(C)c(C(=O)Nc2ccc(Oc3ccnc4cc(OC)ccc34)cn2)c(=O)n1-c1ccccc1 gave a Ki [1] of 2890 nM.
Compound COc1ccc2c(Oc3ccc(NC(=O)c4c(C)n(CC(C)O)n(-c5ccccc5)c4=O)nc3)ccnc2c1 (stereo unspecified) has a Ki [1] of 1290 nM.
For COc1ccc2c(Oc3ccc(NC(=O)c4c(C)n(CC(O)C(C)C)n(-c5ccccc5)c4=O)cc3F)ccnc2c1 (stereo unspecified), the Ki [1] was 637 nM.
Compound COc1ccc2c(Oc3ccc(NC(=O)c4c(C)n(CC(O)CN)n(-c5ccccc5)c4=O)cc3F)ccnc2c1 (stereo unspecified) has a Ki [1] of 104 nM.
In the case of COc1ccc2c(Oc3ccc(NC(=O)c4c(C)n(CC5CNC(=O)O5)n(-c5ccccc5)c4=O)cc3F)ccnc2c1 (stereo unspecified), the Ki [1] is reported as 1660 nM.
COc1ccc2c(Oc3ccc(NC(=O)c4c(C)n(CC(C)(C)O)n(-c5ccccc5)c4=O)cc3F)ccnc2c1 showed a Ki [1] of 887 nM.
Compound COc1ccc2c(Oc3ccc(NC(=O)c4c(C)n(CC(C)C)n(-c5ccccc5)c4=O)cc3F)ccnc2c1 has a Ki [1] of 915 nM.
Compound COc1ccc2c(Oc3ccc(NC(=O)c4c(C)n(C)n(-c5ccccc5)c4=O)cc3F)ccnc2c1 has a Ki [1] of 178 nM.
Work on CCCn1c(C)c(C(=O)Nc2ccc(Oc3ccnc4cc(OC)ccc34)c(F)c2)c(=O)n1-c1ccccc1 yielded a Ki [1] of 419 nM.
Work on COc1ccc2c(Oc3ccc(NC(=O)c4c(C)n(C[C@H](C)O)n(-c5ccccc5)c4=O)cc3F)ccnc2c1 yielded a Ki [1] of 695 nM.
COc1ccc2c(Oc3ccc(NC(=O)c4c(C)n(CC(C)(C)O)n(-c5ccccc5)c4=O)nc3)ccnc2c1 was tested, and the IC50 [17] was 10 nM, the IC50 [3] was 10 µM and the IC50 [4] was 10 µM. For the same compound, the IC50 [5] was 25 µM, the IC50 [6] was 25 µM and the IC50 [7] was 25 µM. The IC50 [8] was 25 µM, the IC50 [9] was 25 µM and the IC50 [10] was 25 µM. For the same compound, the IC50 [18] was 25 µM, the IC50 [11] was 25 µM and the IC50 [12] was 100 µM. It also gave an IC50 [19] of 100 µM, an IC50 [13] of 100 µM and an IC50 [14] of 100 µM. For the same compound, the IC50 [20] was 100 µM, the IC50 [21] was 100 µM and the IC50 [16] was 10 nM. The Ki [16] was 1 nM.
Compound COc1ccc2c(Oc3ccc(NC(=O)c4c(C)n(C[C@@H](C)O)n(-c5ccccc5)c4=O)cc3F)ccnc2c1 has a Ki [1] of 744 nM.
COc1ccc2c(Oc3ccc(NC(=O)c4c(C5CCCO5)n(C)n(-c5ccccc5)c4=O)cc3F)ccnc2c1 (racemic) showed a Ki [1] of 190 nM.
With COc1ccc2c(Oc3ccc(NC(=O)c4c(C5CCOC5)n(C)n(-c5ccccc5)c4=O)cc3F)ccnc2c1 (racemic) the Ki [1] was 250 nM.
COc1ccc2c(Oc3ccc(NC(=O)c4c(C)n(CC(C)O)n(-c5ccccc5)c4=O)cc3F)ccnc2c1 (racemic) was tested, and the Ki [1] was 1330 nM.
